Test system: Phakopsora pachyrhizi
Experiment: Phakopsora test (soybean)/seed treatment
Type: in vivo
Settings: greenhouse, infected leaf area per plant
Method: The test is performed under greenhouse conditions.
Soy bean seeds, treated with the active compound or compound combinations, solved in N-methyl-2-pyrrolidon and diluted with water to the desired dosages, were sown in 6*6 cm pots containing 4 cm of a 1:1 mix of steamed field soil and sand.
The plants were grown at 22° C. and 90% relative humidity in a greenhouse chamber. 21 days old plants were inoculated with an aqueous spore suspension of the causal agent of soybean rust (Phakopsora pachyrhizi) and stay for 24 h without light in an incubation cabinet at approximately 24° C. and a relative atmospheric humidity of 95%. The plants remain in the incubation cabinet at approximately 24° C. and a relative atmospheric humidity of approximately 80% and a day/night interval of 12 h.
Assessment consisted of evaluation of infected leaf area per plant. 0% means an efficacy which corresponds to that of the control, while an efficacy of 100% means that no disease is observed.

CNC(=O)c1cc(C#N)cc(C)c1NC(=O)c1cc(Br)nn1-c1ncccc1Cl [2.2, Cyantraniliprole, reference compound]
Efficacy in % found* (application rate 0.5 ppm a.i.): 0%

CNC(=O)c1cc(C#N)cc(C)c1NC(=O)c1cc(Cn2nnc(C(F)(F)F)n2)nn1-c1ncccc1Cl [2.5, 1-(3-chloropyridin-2-yl)-N-[4-cyano-2-methyl-6-(methylcarbamoyl)phenyl]-3-{[5-(trifluoromethyl)-2H-tetrazol-2-yl]methyl}-1H-pyrazole-5-carboxamide]
Efficacy in % found* (application rate 2.5 ppm a.i.): 13%

CC1CC(C)(C)c2cccc(NC(=O)c3cn(C)nc3C(F)F)c21 (stereo not drawn) [(I-1), 3-(difluoromethyl)-1-methyl-N-(1,1,3-trimethyl-2,3-dihydro-1H-inden-4-yl)-1H-pyrazole-4-carboxamide]
Efficacy in % found* (application rate 25 ppm a.i., 0% = control, 100% = no disease): 25%

From patent publication US9510596B2, “Binary pesticidal and fungicidal mixtures” (BAYER CROPSCIENCE AG, priority 2012, dated 2016)
